According to patent publication US5368841A, “Photodynamic therapy for the destruction of the synovium in the treatment of rheumatoid arthritis and the inflammatory arthritides” (The General Hospital Corporation, priority 1993, dated 1994):

Key:
[1] = rabbit, in vivo
[2] = test system: EJ (human bladder carcinoma); assay: Intracellular PpIX synthesis versus cell proliferation rate (Table 4); assay type: cell-based; conditions: Dt 23 h
[3] = test system: 5PAM (murine squamous cell carcinoma); assay: as above; assay type: cell-based; conditions: Dt 14 h
[4] = test system: NBT-2 (rat bladder carcinoma); assay: as above; assay type: cell-based; conditions: Dt 13.5 h
[5] = test system: HSF (human skin fibroblast); assay: as above; assay type: cell-based; conditions: Dt 27 h
[6] = set-up: species or system New Zealand White rabbits; conditions: rabbit, in vivo
Experimental: (§1) Thirty New Zealand White rabbits weighing 2-4 kg were sensitized over a six week period with two cutaneous injections of ovalbumin suspended in Fruends adjuvant. At six weeks, the knee joints of all animals were challenged with an intra-articular injection of ovalbumin solution. Seven days following joint challenge, 25 animals received systemic intravenous injections with Photofrin® (2.0 mg/kg). Animals were killed at 6, 12, 24, 48 and 72 hours post Photofrin® injection and tissue samples were obtained of skin, quadriceps muscle, knee synovium, articular cartilage, meniscus, bone and tendon. Tissue weight was measured (Mettler AE 163 balance) and tissue samples were frozen at -90 degrees C. (Revco Ultra Low Freezer) until dye extraction.
The biodistribution of Photophrin® within synovium, articular cartilage and meniscus was also studied with fluorescence microscopy. At each of the harvest intervals of 6, 12, 24, 48 and 72 hours post injection, tissue specimens were obtained from experimental and control animals. Samples were placed in O.C.T. medium and frozen at -90 C. Unstained frozen sections at 10 microns were prepared using a cryostat (Microm, Inc., Heidelberg, Germany) and analyzed with a fluorescence microscope (Axiophot, Zeiss, Oberkochen, Germany) under epiluminescence of a mercury lamp (HBO 200 W/2, Zeiss). […]

[7] = rabbit, in vivo; remark: listed apart in the source
Experimental: Photochemotherapeutic synovectomy was performed on an antigen induced arthritis (AIA) model in 12 New Zealand white rabbits in a double control study. After a six week sensitization period, the joints of all animals were challenged bilaterally with an injection of albumin suspended in Freund's adjuvant. After five days, eight animals received systemic injections of 2 mg/kg of Photophrin® II. At 24 hours, four animals underwent bilateral arthrotomy procedures. The right knee joint of each was exposed to 100J/cm2 of 630 nm laser light over a 20 minute period. The left knees, not receiving the laser light application, served as controls. At 48 hours post HPD injection, an additional 4 animals underwent the identical operative procedures. Post-operatively, all animals were returned to their cages and allowed free movement. […] At one month post treatment, animals were sacrificed, knee joint synovium was then harvested, fixed, and stained with H and E for pathological evaluation.

[8] = set-up: species or system New Zealand White rabbits; conditions: rabbit, in vivo; remark: listed apart in the source
Experimental: as §1
For extraction, tissue samples were homogenized (Homogenizer, Model PT 10/35, Brinkman Instruments, Co., Westbury, N.Y.) in 8 cc 0.1N NaOh solution. Each sample was centrifuged at 17,000 RPM (Sorvall RC-5B, refrigerated superspeed centrifuge, DuPont instruments) for 20 minutes. The fluorescence of 2 cc of supernatant was measured with a spectrofluorometer (Model Flourolog 2, Spex Industries, Inc., Edison, N.J.) and compared to that of standard solutions of Photofrin® with known concentration, and Photofrin® mixed with supernatant of extracted control quadriceps muscle. The excitation wavelength 366 nm and fluorescence spectrum between 600 and 700 nm was analyzed. Untreated animals will served as controls and for background correction.

## NCC(=O)CCC(=O)O [ALA, δ-aminolevulinic acid]
[1]
  ALA observed in the synovium: large amounts

## C=CC1=C(C)c2cc3[nH]c(cc4nc(cc5[nH]c(cc1n2)c(C)c5CCC(=O)O)C(CCC(=O)O)=C4C)c(C)c3C=C [PpIX, Protoporphyrin IX]
[2]
  Intracellular PpIX (4 h): 100 a moles/cell
[3]
  Intracellular PpIX (4 h): 160 a moles/cell
[4]
  Intracellular PpIX (4 h): 160 a moles/cell
[5]
  Intracellular PpIX (4 h): 40 a moles/cell

## Photofrin®
[6]
  uptake by fluorescence microscopy in synovium: significant uptake at 12, 24, 48 and 72 hours
[7]
  side effects of synovium destruction: without significant side effects
[8]
  selectivity of uptake in inflamed synovium: selectively taken up in synovium at 24 and 48 hours post systemic injection
  uptake in articular cartilage, meniscus, muscle and tendon: insignificant
[8]; iv, 2 mg/kg
  Photofrin® concentration in tissue (inflamed synovium): greater than 4 micrograms/gram of tissue
  time of maximum uptake in inflamed synovium: 48 h
